Results reported in BindingDB's records for doi:10.1016/s1074-5521(98)90117-x (Dupont Pharmaceuticals, 1998).

biological target: HIV-1 protease (Human immunodeficiency virus, UniProt O90785); experiment: Protease Inhibtion Assay; details: pH 5.5
Excerpt: Protease inhibition fluorescence-based assay using cyclic ureas to inhibit HIV-protease.

Chain of HIV-1 protease (O90785 whole entry): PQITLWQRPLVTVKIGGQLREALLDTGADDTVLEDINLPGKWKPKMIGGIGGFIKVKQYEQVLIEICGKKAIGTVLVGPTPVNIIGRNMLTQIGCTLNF

Row | SMILES | Ki
1 | CCCNc1[nH]nc2ccc(CN3C(=O)N(Cc4ccc5n[nH]c(NCCC)c5c4)[C@H](Cc4ccccc4)[C@H](O)[C@@H](O)[C@H]3Cc3ccccc3)cc12 [3-alkylaminoindazole cyclic urea, (n-Pr)] | 0.23 nM
2 | CCNc1[nH]nc2ccc(CN3C(=O)N(Cc4ccc5n[nH]c(NCC)c5c4)[C@H](Cc4ccccc4)[C@H](O)[C@@H](O)[C@H]3Cc3ccccc3)cc12 [3-alkylaminoindazole cyclic urea, (Et)] | 0.041 nM
3 | CCCCCN1C(=O)N(Cc2ccc3[nH]nc(N)c3c2)[C@H](Cc2ccccc2)[C@H](O)[C@@H](O)[C@H]1Cc1ccccc1 [n-Pentyl cyclic urea] | 0.041 nM
4 | CCCCCCN1C(=O)N(Cc2ccc3[nH]nc(N)c3c2)[C@H](Cc2ccccc2)[C@H](O)[C@@H](O)[C@H]1Cc1ccccc1 [n-Hexyl cyclic urea] | 0.13 nM
5 | CC(C)Nc1[nH]nc2ccc(CN3C(=O)N(Cc4ccc5n[nH]c(NC(C)C)c5c4)[C@H](Cc4ccccc4)[C@H](O)[C@@H](O)[C@H]3Cc3ccccc3)cc12 [3-alkylaminoindazole cyclic urea, (i-Pr)] | 0.09 nM
6 | O=C1N(Cc2ccc(CO)cc2)[C@H](Cc2ccccc2)[C@H](O)[C@@H](O)[C@@H](Cc2ccccc2)N1Cc1ccc(CO)cc1 [(4R,5S,6S,7R)-4,7-dibenzyl-5,6-dihydroxy-1,3-bis({[4-(hydroxymethyl)phenyl]methyl})-1,3-diazepan-2-one] | 0.31 nM
7 | Nc1cccc(CN2C(=O)N(Cc3cccc(N)c3)[C@H](Cc3ccccc3)[C@H](O)[C@@H](O)[C@H]2Cc2ccccc2)c1 | 0.3 nM

Next, values leading:

Row | Ki | SMILES
8 | 0.021 nM | CCCCN1C(=O)N(Cc2ccc3[nH]nc(N)c3c2)[C@H](Cc2ccccc2)[C@H](O)[C@@H](O)[C@H]1Cc1ccccc1 [(4R,5S,6S,7R)-1-(3-Amino-1H-indazol-5-ylmethyl)-4,7-dibenzyl-3-butyl-5,6-dihydroxy-[1,3]diazepan-2-one]
9 | 0.018 nM | O=C1N(Cc2ccc3[nH]ncc3c2)[C@H](Cc2ccccc2)[C@H](O)[C@@H](O)[C@@H](Cc2ccccc2)N1Cc1ccc2[nH]ncc2c1 [(4R,5S,6S,7R)-4,7-dibenzyl-5,6-dihydroxy-1,3-bis(1H-indazol-5-ylmethyl)-1,3-diazepan-2-one]
10 | 0.018 nM | CNc1[nH]nc2ccc(CN3C(=O)N(Cc4ccc5n[nH]c(NC)c5c4)[C@H](Cc4ccccc4)[C@H](O)[C@@H](O)[C@H]3Cc3ccccc3)cc12 [3-alkylaminoindazole cyclic urea, (Me)]
11 | < 0.01 nM | Nc1n[nH]c2ccc(CN3C(=O)N(Cc4ccc5[nH]nc(N)c5c4)[C@H](Cc4ccccc4)[C@H](O)[C@@H](O)[C@H]3Cc3ccccc3)cc12 [3-alkylaminoindazole cyclic urea, (H)]
12 | 0.031 nM | Nc1n[nH]c2ccc(CN3C(=O)N(Cc4ccccc4)[C@H](Cc4ccccc4)[C@H](O)[C@@H](O)[C@H]3Cc3ccccc3)cc12 [DMP850]
13 | 0.02 nM | Nc1n[nH]c2ccc(CN3C(=O)N(CC4CC4)[C@H](Cc4ccccc4)[C@H](O)[C@@H](O)[C@H]3Cc3ccccc3)cc12 [Cyclopropylmethyl cyclic urea]
14 | 0.01 nM | Nc1n[nH]c2ccc(CN3C(=O)N(Cc4ccc5[nH]nc(N)c5c4)[C@H](Cc4ccccc4)[C@H](O)[C@@H](O)[C@H]3Cc3ccccc3)cc12 [3-Aminoindazole, 2]
15 | 0.023 nM | Nc1n[nH]c2ccc(CN3C(=O)N(Cc4ccc5ccccc5c4)[C@H](Cc4ccccc4)[C@H](O)[C@@H](O)[C@H]3Cc3ccccc3)cc12 [2-Naphthylmethyl cyclic urea]
16 | 0.016 nM | Nc1n[nH]c2ccc(CN3C(=O)N(CC4CCC4)[C@H](Cc4ccccc4)[C@H](O)[C@@H](O)[C@H]3Cc3ccccc3)cc12 [Cyclobutylmethyl cyclic urea]
